From US9272034B2, “Treatment of conditions related to shock” (The Regents of the University of California, priority 2007, dated 2016)

Columns and labels:
hemorrhagic shock [1] = test: Enteroclysis with digestive protease blockade in porcine hemorrhagic shock; type: in vivo, pigs
Experimental: The inventors examined the utility of intestinal lavage in a porcine model of hemorrhagic shock. An objective of this study was to determine the effect of digestive protease blockade in the lumen of the intestine during hemorrhagic shock. The animals (16 pigs) were subjected to a shock that mimics clinical events. Pigs were bled 30 ml/kg over 30 minutes and maintained at a mean arterial pressure of 30 mmHg for 60 minutes and shed blood was then used to maintain a pressure of 45 mmHg for three hours.

[2] = system: hemorrhagic, endotoxic and cecal ligation shock; test: Long-term survival pilot studies, observations stated for all three shock models together; type: in vivo, rat
Experimental: (§1) A study of the long term survival after blockade of digestive enzymes provided further support to the findings. In preparation for this application the inventors carried out pilot studies in the rat with (a) hemorrhagic, (b) endotoxic and (c) cecal ligation shock, followed by an observation period for two weeks until normal cage activities were recorded in survivors. Without food restriction, in hemorrhagic shock the mean blood pressure was reduced for two hours to 35 mmHg followed by return of all blood volume but no further resuscitation. The digestive enzymes were blocked at 1 hour after hypotension by direct infusion of ANGD (0.37 mM, 15 ml) into the intestinal lumen after a temporary exposure via a midline incision. In endotoxic shock, the rats received gram-negative endotoxin (5 mg/kg, i.v.); the digestive enzymes were blocked in the same way at 1 hour after endotoxin administration. No other agent was administered. In cecal ligation shock both the digestive enzymes in the lumen of the intestine as well as inside the peritoneum were blocked with ANGD. […] In contrast to untreated controls, all treated survivors returned after anesthesia within hours to normal activity (walking, climbing, grooming, drinking, eating, bowel movements) and within 3 days to normal weight gain. Furthermore, treatment with alternative serine protease inhibitors (CYCLOKAPRON, tranexamic acid; TRASYLOL, aprotinin) in cecal ligation shock gave significant survival rates (5/5 rats, P<0.0079; 4/5 rats, P<0.02, respectively).

[3] = system: pancreatic digestive enzymes; test: Enzyme inhibitors administered directly into the circulation (i.v., i.a., i.m.) in shock; type: in vivo; conditions: administered directly into the circulation (i.v., i.a., i.m.) instead of the lumen of the intestine
Experimental: From a mechanistic point of view, an important feature is the fact that the significant protection rendered by the inhibition of pancreatic digestive enzymes is only provided if the enzymes are blocked inside the lumen of the intestine. […] This observation supports the hypothesis that digestive enzymes in the lumen of the intestine—where they are fully activated and in high concentrations—are the major enzymes in acute intestinal ischemia. They produce inflammatory mediators that are carried towards the central circulation via the portal venous system, but also via the intestinal lymphatics.

Hemorrhagic Shock [4] = test: Long-term survival, hemorrhagic shock with intra-intestinal enzyme blockade; type: in vivo, rat; conditions: ANGD 0.37 mM, 15 ml into intestinal lumen at 1 hour after hypotension; two weeks observation; P < 0.01
Experimental: as §1, with “Furthermore, treatment with alternative serine protease inhibitors (CYCLOKAPRON, tranexamic acid; TRASYLOL, aprotinin) in cecal ligation shock gave significant survival rates (5/5 rats, P<0.0079; 4/5 rats, P<0.02, respectively).” left out

Endotoxic Shock = test: Long-term survival, endotoxic shock with intra-intestinal enzyme blockade; type: in vivo, rat; conditions: endotoxin 5 mg/kg i.v.; blockade at 1 hour; two weeks observation; P < 0.004
Experimental: as §1, with “Furthermore, treatment with alternative serine protease inhibitors (CYCLOKAPRON, tranexamic acid; TRASYLOL, aprotinin) in cecal ligation shock gave significant survival rates (5/5 rats, P<0.0079; 4/5 rats, P<0.02, respectively).” left out

hemorrhagic shock [5] = test: Survival of lab rodents in hemorrhagic shock given basic shock care with or without inhibitor; type: in vivo; conditions: 10 of 19 rodents treated; one of nine untreated survived
Description: The researchers then began animal studies. The present invention is based on the latest research using rodent models of human hemorrhagic shock. Here it has been discovered that the sudden lowering of blood pressure that occurs in people suffering from […] can provoke the body's digestive enzymes to break down the body's own intestinal tissue as if it were food. Such enzymes' abnormal actions may be defined as “auto-digestion.” Auto-digestion is dangerous because not only does it injure healthy tissue but also contributes to multi-organ failure, which can be fatal.
The healthy cells of the animals' intestinal tissue react to auto-digestion by releasing a slew of substances that can be toxic to the heart and other body organs. These substances, termed cytotoxic mediators, can reach these body organs via the blood stream. In their latest studies, shock was induced in 19 lab rodents, all of which were then treated with therapies that mirror the emergency room care given to many human patients who suffer shock, which typically occurs when blood flow to the heart, lungs and other body organs is slowed as a result of trauma, dehydration, heart attack or stroke.
A total of 10 of the 19 lab rodents in shock were also treated with the experimental digestive enzyme inhibitor called ANGD. […] However, only one of the nine “untreated” animals in shock survived. […]

[6] = system: plasma enzymatic activity (cleavage of the extracellular domain of the insulin receptor); test: Shock plasma protease activity cleaving the insulin receptor extracellular domain on donor cells; type: cell-based; conditions: plasma of rats in hemorrhagic shock collected at 4 hours; results not shown
Experimental: It was further shown that plasma of shock rats has protease activity and causes cleavage of the extracellular domain of the insulin receptor, E-cadherin, and CAT-1. In all forms of shock there is consistently proteolytic activity in plasma. Therefore the inventors investigated the ability of central venous plasma of rats in hemorrhagic shock (collected at 4 hours) to cleave the extracellular domain of the insulin receptor a by using an antibody against the extracellular binding domain of insulin combined with membrane receptor density measurements. Exposure of normal donor cells to plasma from shock rats, but not to plasma of control rats, causes extensive cleavage of the insulin binding domain. Furthermore, this cleavage causes also a reduction of the glucose transport into the cell cytoplasm. […] There is also a significant cleavage of the extracellular domain of the tight junction protein E-cadherin in intestinal epithelium and CAT-1 in leukocytes.

Cecal Lig. Shock = test: Long-term survival, cecal ligation shock with blockade in intestinal lumen and peritoneum; type: in vivo, rat; conditions: for survival rate (survivors/treated): alternative serine protease inhibitors
Experimental: as §1

[7] = system: intestinal ischemia-induced shock; test: Intra-intestinal pancreatic protease inhibition in intestinal ischemia and reperfusion (SMAO); type: in vivo
Description: These experiments were designed to examine whether inflammatory mediators generated in the intestine by digestive enzymes are released early into the circulation and may contribute to the severe systemic inflammatory response syndrome during shock, a condition that involves the microcirculation in peripheral organs. Intestinal ischemia and reperfusion-induced hypotension upon reperfusion was accompanied by a significant increase in the level of neutrophil activating factors in the intestine and plasma. During reperfusion a significant increase in leukocyte-endothelium interactions in post-capillary venules and parenchymal cell death are observed in the cremaster muscle in controls after SMAO. […] In addition, ischemia-induced intestinal mucosal injury is attenuated with intestinal pancreatic protease inhibition.

[8] = system: superior mesenteric artery occlusion (SMAO)-induced shock; test: Delayed intestinal lavage with protease inhibitor during reperfusion after SMAO; type: in vivo, Male Wistar rats
Description: In one series of experiments, the inventors discovered that delayed inhibition of digestive enzymes in the lumen of the intestine reduces inflammatory markers after shock. As a clinically relevant situation, the inventors examined the effectiveness of a delayed intestinal protease inhibition during reperfusion after SMAO. […] Intestinal ischemia-induced endotoxemia was prevented by digestive enzyme inhibition.
In summary, delayed intestinal protease inhibition serves to improve experimental SMAO-induced shock by reducing intestinal injury, the level of cell activation in plasma and in the microcirculation, and by restoring the blood pressure.

[9] = system: septic shock with a lethal dose of endotoxin; test: Intra-luminal lavage after lethal dose of endotoxin (septic shock); type: in vivo, rat; conditions: endotoxin 4 mg/kg i.v.
Description: Sepsis is accompanied by severe inflammation whose mechanism remains uncertain. The inventors examined the possibility that pancreatic digestive enzymes may also be involved in inflammation in an experimental form of septic shock with a lethal dose of endotoxin in the rat. Immediately after intravenous endotoxin administration, the small intestine was subjected to intra-luminal lavage with and without an inhibitor of pancreatic digestive proteases (FOY, gabexate mesilate). After endotoxin administration (4 mg/kg, gram-negative), control rats developed hypotension, tachycardia, hyperventilation and leukopenia. The intestine and plasma contained mediators that activated leukocytes. The leukocyte-endothelial interaction within the cremaster muscle microcirculation was enhanced. […] These experiments indicate that inflammatory mediators derived from the intestine by digestive proteases may be involved in the prolonged inflammatory response and may sustain symptoms of sepsis after an endotoxin challenge. A bolus administration of endotoxin causes a transient inflammation response and elevated intestinal permeability. But the sustained inflammation that leads to multi-organ failure in this situation is caused by auto-digestion due to escape of pancreatic digestive enzymes from the lumen of the intestine due to the elevated mucosal permeability.

[10] = system: cytotoxic factors (free fatty acids) of intestinal homogenates; test: Cell death caused by rat small intestine homogenates; type: cell-based; conditions: homogenization of intestinal wall in the presence of the inhibitor
Description: Breakdown of free fatty acid binding proteins by proteases causes release of free fatty acids to act as powerful cytotoxic mediators.

septic shock = conditions: FDA approved treatment; more recent trials could not confirm the effectiveness; cited from earlier work
[11] = 100 ml/kg of 0.37 mM in GOLYTELY via duodenal catheter
[12] = blockade in lumen of intestine and peritoneum, two weeks observation, P < 0.001
[13] = FOY 0.37 mM, delayed lavage at 40 min after reperfusion

Question: For `N=C(N)c1ccc2cc(OC(=O)c3ccc(N=C(N)N)cc3)ccc2c1` [ANGD, 6-amidino-2-naphthyl p-guanidobenzoate dimethane-sulfate], which “protease activity in the intestinal lumen and in plasma throughout the experiment” value (hemorrhagic shock [1]; [11]) is on record?
Answer: Its value is “persistent suppression”.

Question: And the “protein and protease levels in the duodenum during enteroclysis” value (hemorrhagic shock [1]; [11])?
Answer: The value was “significant reductions”.

Question: And the “leukocyte infiltration into the lung” value (hemorrhagic shock [1]; p=0.04)?
Answer: The value was “lower in treated than control animals”.

Question: And the “liver and small intestine injury” value (hemorrhagic shock [1]; pig, in vivo)?
Answer: The value was “less injury”.

Question: And the “transfusion requirement of shed blood” value (hemorrhagic shock [1]; versus 30±0.43 ml/kg in controls, p=0.002)?
Answer: Its value is 18.1 ± 4.5 mL/kg.

Question: What about the “level of neutrophil activation after resuscitation” value (hemorrhagic shock [1]; versus 46.9±4.5% in controls, p=0.0002) of the same molecule?
Answer: Its value is 31.1±3.3%.

Question: What about the “survival rate versus untreated controls” value ([2]; in each shock model) of the same molecule?
Answer: Its value is “significantly enhanced survival rate”.

Question: And the “return of treated survivors to normal weight gain” value ([2]; rat, in vivo)?
Answer: Its value is ≤ 3 days.

Question: And the “return of treated survivors to normal activity after anesthesia” value ([2]; walking, climbing, grooming, drinking, eating, bowel movements)?
Answer: The value was “within hours”.

Question: What about the “protection against inflammation in shock” value [3] of the same molecule?
Answer: Its value is “less, and in some cases no protection”.

Question: And the Non-Survivor (Hemorrhagic Shock [4])?
Answer: Its Non-Survivor is 2 number of rats.

Question: What about the Survivor (Hemorrhagic Shock [4]) of the same molecule?
Answer: The Survivor was 10 number of rats.

Question: And the Non-Survivor (Endotoxic Shock)?
Answer: The Non-Survivor was 1 number of rats.

Question: And the Survivor (Endotoxic Shock)?
Answer: Its Survivor is 10 number of rats.

Question: And the “survival (survivors of treated animals)” value (hemorrhagic shock [5])?
Answer: The value was “Eight of the ten”.

Question: And the “block of plasma enzymatic activity” value [6]?
Answer: The value was “more than 50%”.

Question: What about the Non-Survivor (Cecal Lig. Shock; [12]) of the same molecule?
Answer: The Non-Survivor was 1 number of rats.

Question: And the Survivor (Cecal Lig. Shock; [12])?
Answer: The Survivor was 9 number of rats.

Question: For `NC[C@H]1CC[C@H](C(=O)O)CC1` [CYCLOKAPRON, tranexamic acid], which “survival rate (survivors/treated)” value (Cecal Lig. Shock) is on record?
Answer: The value was 5/5.

Question: With `CCOC(=O)c1ccc(OC(=O)CCCCCN=C(N)N)cc1.CS(=O)(=O)O` [FOY, gabexate mesilate] as the molecule, how does the “leukocyte-endothelial interactions (rolling and firm adhesion to the endothelium)” value ([7]; cremaster muscle) read?
Answer: Its value is “almost completely abolished”.

Question: And the “cell death (propidium iodine labeling) in the cremaster muscle” value ([7]; in vivo)?
Answer: The value was “almost completely abolished”.

Question: What about the “ischemia-induced intestinal mucosal injury” value ([7]; in vivo) of the same molecule?
Answer: Its value is “attenuated”.

Question: And the blood pressure ([7]; intra-intestinal, 0.37 mM)?
Answer: The blood pressure was “stable blood pressure throughout the experiment”.

Question: What about the cell activation ([7]; intra-intestinal, 0.37 mM) of the same molecule?
Answer: The cell activation was “almost completely abolished”.

Question: What about the “formation of intestine-derived leukocyte activation factors” value [8, 13] of the same molecule?
Answer: The value was “decreased formation”.

Question: And the intestinal injury [8, 13]?
Answer: The intestinal injury was “decreased”.

Question: And the blood pressure ([8]; FOY 0.37 mM, delayed lavage at 40 min after reperfusion, SMAO 100 min)?
Answer: The blood pressure was “highly significant restoration of the initial blood pressure before shock”.

Question: What about the “leukocytes adhesion in post-capillary venules” value ([8]; cremaster muscle microcirculation) of the same molecule?
Answer: The value was “lower leukocytes adhesion”.

Question: What about the “cell death in the cremaster muscle microcirculation” value ([8]; rat, in vivo) of the same molecule?
Answer: Its value is “reduced cell death”.

Question: What about the intestinal ischemia-induced endotoxemia ([8]; rat, in vivo) of the same molecule?
Answer: Its intestinal ischemia-induced endotoxemia is “prevented”.

Question: And the “cell injury in peripheral skeletal muscle microcirculation” value [9]?
Answer: The value was “reduces”.

Question: And the “indices of inflammation in plasma” value [9]?
Answer: Its value is “reduces all indices”.

Question: And the hemodynamic parameters ([9]; intra-luminal lavage immediately after)?
Answer: Its hemodynamic parameters is “significantly improved”.

Question: Which “cell death after protease digestion” value [10] does the source give for `CCCCCCCCCCC[C@@H](C[C@@H]1OC(=O)[C@H]1CCCCCC)OC(=O)[C@H](CC(C)C)NC=O` [orlistat] here?
Answer: The value was “prevented cell death”.

Question: What does the source list for aprotinin [TRASYLOL]?
Answer: protection against inflammation in shock [3]: less, and in some cases no protection; survival rate (survivors/treated) (Cecal Lig. Shock): 4/5

Question: Which survival benefit (septic shock) does the source give for drotrecogin alfa (activated) [XIGRIS] here?
Answer: Its survival benefit is “minor but confirmed survival benefit”.
